The results in this text go back to patent publication US20240254140A1, “COMPOUNDS AND THEIR USE IN THE TREATMENT OF BACTERIAL INFECTION” (Hoffmann-La Roche Inc., priority 2021, published 2024).

The structures appear in SMILES notation. ≈ marks a conversion by molar mass, not a printed value.

In general, MIC refers to the smallest concentration in the dilution series that meets the test's criterion for growth inhibition. Read a high MIC as a need for much substance.

For the first experiment, the system named is Escherichia coli ATCC 25922. The experiment can be described thus: Minimal Inhibitory Concentration (MIC) determination, broth microdilution. The experiment is classed as cell-based. The conditions noted are these: ATCC25922; strain Escherichia coli ATCC 25922; broth microdilution per CLSI M07-A10; 18-24 hours at 35±2° C.; lowest concentration for complete growth inhibition. How it is done: Minimal Inhibitory Concentration (MIC) Determination:
The MIC of antibacterial compounds against multiple species and strains was determined using the broth microdilution method according to M07-A10 Clinical and Laboratory Standards Institute (CLSI) guidelines, using the appropriate broth medium. In short, the compound plates were prepared by dispensing 100 μL of each stock solution in the first well of a 96 well microtiter plate (MTP) at a concentration 100-fold higher than the final concentration desired in broth. Eleven serial 2-fold dilutions of the highest concentration were made in DMSO for new compounds and in water (or appropriate solution) for reference compounds [2]. 1 μL of each well was transferred in a new MTP, which served as the test plate by subsequent inoculation. This bacterial suspension was prepared from strains that were first sub-cultured on agar plates and incubated for 18-24 hours as appropriate. Following incubation, the inoculum was prepared from isolated colonies and adjusted to 0.5 McFarland turbidity standard (1 to 2×10^8 Colony Forming Units (CFU)/mL) in 0.9% saline. The bacterial suspension was then diluted 1:200 in appropriate sterile medium and within 15 minutes 100 μL/well were dispensed. Negative controls (lack of bacterial cells) and growth control wells (lack of compound) were included in all plates. MTPs were incubated for 18-24 hours at 35±2° C. in ambient air. The MIC value of each compound, expressed as μg/mL, was determined as the lowest concentration required for complete growth inhibition (no visible growth). • [1] CLSI (2015) Methods for dilution antimicrobial susceptibility tests for bacteria that grow aerobically; Approved Standard, Tenth Edition. CLSI Document M7-A10 (ISBN 1-56238-987-4). Wayne, PA: Clinical and Laboratory Standards Institute, 19087, USA. • [2] CLSI (2017) Performance Standards for Antimicrobial Susceptibility Testing; Twenty-Fifth Informational Supplement. CLSI Document M100-S27, CLSI, Wayne, Pennsylvania 19087, USA.
Table 1 provides the Minimal Inhibitory Concentrations (MIC) in micrograms per millilitre of the compounds of present invention obtained against the strain Escherichia coli ATCC 25922.
For the compound `CC(C)(O)C(=O)Nc1cc(C#N)c2c(c1)CC(CNCCC1CN(c3ccc4c(n3)NC(=O)CO4)C(=O)O1)C2` (stereo not drawn) [Example 21, N-[7-cyano-2-[[2-[2-oxo-3-(3-oxo-4H-pyrido[3,2-b][1,4]oxazin-6-yl)oxazolidin-5-yl]ethylamino]methyl]indan-5-yl]-2-hydroxy-2-methyl-propanamide], the minimum inhibitory concentration (MIC) came to 0.5 µg/mL (≈ 0.935 µM).
`O=C1COc2ncc(N3CC(CCNCC4Cc5cc(NC(=O)[C@@H]6CCCN6)cc(F)c5C4)OC3=O)nc2N1` (stereo partly drawn) [Example 36, (2S)—N-[7-Fluoro-2-[[2-[2-oxo-3-(3-oxo-4H-pyrazino[2,3-b][1,4]oxazin-6-yl)oxazolidin-5-yl]ethylamino]methyl]indan-5-yl]pyrrolidine-2-carboxamide] came in with a minimal inhibitory concentration (MIC) of 0.25 µg/mL (≈ 0.463 µM).
On to `COC[C@@H](N)C(=O)Nc1cc(F)c2c(c1)CC(CNCCC1CN(c3cnc4c(n3)NC(=O)CO4)C(=O)O1)C2` (stereo partly drawn) [Example 39, (2R)-2-amino-N-[7-fluoro-2-[[2-[2-oxo-3-(3-oxo-4H-pyrazino[2,3-b][1,4]oxazin-6-yl)oxazolidin-5-yl]ethylamino]methyl]indan-5-yl]-3-methoxy-propanamide], for which the MIC was 0.5 µg/mL (≈ 0.92 µM).
The same measure, in the same setting: under `CN(CC(=O)Nc1cc(F)c2c(c1)CC(CNCCC1CN(c3cnc4c(n3)NC(=O)CO4)C(=O)O1)C2)C1COC1` (stereo not drawn) [Example 11] stands 0.5 µg/mL (≈ 0.878 µM); under `Cc1ncc(C(=O)Nc2cc(F)c3c(c2)CC(CNCCC2CN(c4cnc5c(n4)NC(=O)CO5)C(=O)O2)C3)o1` (stereo not drawn) [Example 15, N-[7-fluoro-2-[[2-[2-oxo-3-(3-oxo-4H-pyrazino[2,3-b][1,4]oxazin-6-yl)oxazolidin-5-yl]ethylamino]methyl]indan-5-yl]-2-methyl-oxazole-5-carboxamide], 0.25 µg/mL (≈ 0.453 µM).
`C[C@@]1(C(=O)Nc2cc(F)c3c(c2)CC(CN2CCC4(CC2)CN(c2cnc5c(n2)NC(=O)CO5)C(=O)O4)C3)C[C@@H](O)CN1` (single isomer, unassigned) [Example 72] had a minimum inhibitory concentration (MIC) of 0.5 µg/mL (≈ 0.839 µM).
`CN(C)CC(=O)Nc1cc(F)c2c(c1)CC(CNCCC1CN(c3cnc4c(n3)NC(=O)CO4)C(=O)O1)C2` (stereo not drawn) [Example 1, 2-(Dimethylamino)-N-[7-fluoro-2-[[2-[2-oxo-3-(3-oxo-4H-pyrazino[2,3-b][1,4]oxazin-6-yl)oxazolidin-5-yl]ethylamino]methyl]indan-5-yl]acetamide] yielded a minimal inhibitory concentration (MIC) of 0.125 µg/mL (≈ 0.237 µM).
For the compound `Cc1cc(NC(=O)[C@@H](C)N(C)C)nc2c1CC(CNCCC1CN(c3cnc4c(n3)NC(=O)CO4)C(=O)O1)C2` (stereo partly drawn) [Example 25, (2R)-2-(dimethylamino)-N-[4-methyl-6-[[2-[2-oxo-3-(3-oxo-4H-pyrazino[2,3-b][1,4]oxazin-6-yl)oxazolidin-5-yl]ethylamino]methyl]-6,7-dihydro-5H-cyclopenta[b]pyridin-2-yl]propanamide], the MIC was determined as 1 µg/mL (≈ 1.86 µM).
Take `N#Cc1cc(NC(=O)[C@@H]2C[C@@H](O)CN2)cc2c1CC(CNCCC1CN(c3cnc4c(n3)NC(=O)CO4)C(=O)O1)C2` (stereo partly drawn) [Example 61, (2S,4R)—N-[7-Cyano-2-[[2-[2-oxo-3-(3-oxo-4H-pyrazino[2,3-b][1,4]oxazin-6-yl)oxazolidin-5-yl]ethylamino]methyl]indan-5-yl]-4-hydroxy-pyrrolidine-2-carboxamide]: the MIC stood at 0.5 µg/mL (≈ 0.889 µM).
Same read-out and setting: the result for `O=C1COc2ncc(N3CC4(CCN(CC5Cc6cc(NC(=O)[C@H]7C[C@@H](O)CN7)cc(F)c6C5)CC4)OC3=O)nc2N1` (stereo partly drawn) [Example 55, (2R,4R)—N-[7-Fluoro-2-[[2-oxo-3-(3-oxo-4H-pyrazino[2,3-b][1,4]oxazin-6-yl)-1-oxa-3,8-diazaspiro[4.5]decan-8-yl]methyl]indan-5-yl]-4-hydroxy-pyrrolidine-2-carboxamide] reads 0.125 µg/mL (≈ 0.215 µM); that for `O=C(CN1CCOCC1)Nc1cc(F)c2c(c1)CC(CNCCC1CN(c3cnc4c(n3)NC(=O)CO4)C(=O)O1)C2` (stereo not drawn) [Example 5, N-[7-fluoro-2-[[2-[2-oxo-3-(3-oxo-4H-pyrazino[2,3-b][1,4]oxazin-6-yl)oxazolidin-5-yl]ethylamino]methyl]indan-5-yl]-2-morpholino-acetamide], 1 µg/mL (≈ 1.76 µM); that for `O=C1COc2ncc(N3CC4(CCN(CC5Cc6c(F)cc(NC(=O)[C@@H]7C[C@@H](O)CN7)c(F)c6C5)CC4)OC3=O)nc2N1` (stereo partly drawn) [Example 52, (2S,4R)—N-[4,7-Difluoro-2-[[2-oxo-3-(3-oxo-4H-pyrazino[2,3-b][1,4]oxazin-6-yl)-1-oxa-3,8-diazaspiro[4.5]decan-8-yl]methyl]indan-5-yl]-4-hydroxy-pyrrolidine-2-carboxamide], 0.25 µg/mL (≈ 0.417 µM).
For `CC(C(=O)Nc1cc(F)c2c(c1)CC(CNCC[C@@H]1CN(c3cnc4c(n3)NC(=O)CO4)C(=O)O1)C2)N1CCC1` (stereo partly drawn) [Example 16], the minimal inhibitory concentration (MIC) was found to be 0.125 µg/mL (≈ 0.226 µM).
`C[C@H](C(=O)Nc1cc(C#N)c2c(c1)CC(O)(CNCCC1CN(c3cnc4c(n3)NC(=O)CO4)C(=O)O1)C2)N(C)C` (stereo partly drawn) [Example 34, (2R)-N-[7-cyano-2-hydroxy-2-[[2-[2-oxo-3-(3-oxo-4H-pyrazino[2,3-b][1,4]oxazin-6-yl)oxazolidin-5-yl]ethylamino]methyl]indan-5-yl]-2-(dimethylamino)propanamide] displayed a minimum inhibitory concentration (MIC) of 4 µg/mL (≈ 7.08 µM).
Same read-out and setting: under `CN(C)[C@]1(C(=O)Nc2cc(F)c3c(c2)CC(CNCCC2CN(c4cnc5c(n4)NC(=O)CO5)C(=O)O2)C3)CCOC1` (stereo partly drawn) [Example 19] stands 2 µg/mL (≈ 3.43 µM).
The same measure, in the same setting: the result for `C[C@H](C(=O)Nc1cc(F)c2c(c1)CC(CNCCC1CN(c3cnc4c(n3)NC(=O)CO4)C(=O)O1)C2)N(C)C` (stereo partly drawn) [Example 4, (2R)-2-(dimethylamino)-N-[7-fluoro-2-[[2-[2-oxo-3-(3-oxo-4H-pyrazino[2,3-b][1,4]oxazin-6-yl)oxazolidin-5-yl]ethylamino]methyl]indan-5-yl]propanamide] reads 0.125 µg/mL (≈ 0.231 µM).
On the same count and under the same terms, the result for `O=C1COc2ncc(N3CC(CCNCC4Cc5cc(NC(=O)[C@H]6C[C@@H](O)CN6)cc(F)c5C4)OC3=O)nc2N1` (stereo partly drawn) [Example 45] reads 1 µg/mL (≈ 1.8 µM); that for `O=C(CN1CC2CC2C1)Nc1cc(F)c2c(c1)CC(CNCCC1CN(c3cnc4c(n3)NC(=O)CO4)C(=O)O1)C2` (stereo not drawn) [Example 12, 2-(3-azabicyclo[3.1.0]hexan-3-yl)-N-[7-fluoro-2-[2-[2-oxo-3-(3-oxo-4H-pyrazino[2,3-b][1,4]oxazin-6-yl)oxazolidin-5-yl]ethylaminomethyl]indan-5-yl]acetamide], 0.125 µg/mL (≈ 0.221 µM).
For `Cl.N[C@@]1(C(=O)Nc2cc(F)c3c(c2)CC(CNCCC2CN(c4cnc5c(n4)NC(=O)CO5)C(=O)O2)C3)CCOC1` (stereo partly drawn) [Example 41, (3S)-3-amino-N-[7-fluoro-2-[[2-[2-oxo-3-(3-oxo-4H-pyrazino[2,3-b][1,4]oxazin-6-yl)oxazolidin-5-yl]ethylamino]methyl]indan-5-yl]tetrahydrofuran-3-carboxamide; hydrochloride], the MIC is 1 µg/mL.
Still for that read-out and setting: the result for `O=C1COc2ncc(N3CC4(CCN(CC5Cc6cc(NC(=O)[C@@H]7C[C@@H](O)CN7)cnc6C5)CC4)OC3=O)nc2N1` (stereo partly drawn) [Example 60, (2S,4R)-4-Hydroxy-N-[6-[[2-oxo-3-(3-oxo-4H-pyrazino[2,3-b][1,4]oxazin-6-yl)-1-oxa-3,8-diazaspiro[4.5]decan-8-yl]methyl]-6,7-dihydro-5H-cyclopenta[b]pyridin-3-yl]pyrrolidine-2-carboxamide] reads 0.5 µg/mL (≈ 0.886 µM); that for `N#Cc1cc(NC(=O)[C@@H]2C[C@@H](O)CN2)cc2c1CC(CN1CCC3(CC1)CN(c1cnc4c(n1)NC(=O)CO4)C(=O)O3)C2` (stereo partly drawn) [Example 59, (2S,4R)—N-[7-cyano-2-[[2-oxo-3-(3-oxo-4H-pyrazino[2,3-b][1,4]oxazin-6-yl)-1-oxa-3,8-diazaspiro[4.5]decan-8-yl]methyl]indan-5-yl]-4-hydroxy-pyrrolidine-2-carboxamide], not above 0.06 µg/mL.
Same read-out and setting: the result for `C[C@H](C(=O)Nc1cc(C#N)c2c(c1)CC(CNCC[C@@H]1CN(c3cnc4c(n3)NC(=O)CO4)C(=O)O1)C2)N(C)C` (stereo partly drawn) [Example 22, (2R)-N-[7-cyano-2-[[2-[(5R)-2-oxo-3-(3-oxo-4H-pyrazino[2,3-b][1,4]oxazin-6-yl)oxazolidin-5-yl]ethylamino]methyl]indan-5-yl]-2-(dimethylamino)propanamide] reads 0.125 µg/mL (≈ 0.228 µM); that for `Cc1nc(NC(=O)[C@@H](C)N(C)C)cc2c1CC(CN1CCC3(CC1)CN(c1cnc4c(n1)NC(=O)CO4)C(=O)O3)C2` (stereo partly drawn) [Example 29, (2R)-2-(dimethylamino)-N-[1-methyl-6-[[2-oxo-3-(3-oxo-4H-pyrazino[2,3-b][1,4]oxazin-6-yl)-1-oxa-3,8-diazaspiro[4.5]decan-8-yl]methyl]-6,7-dihydro-5H-cyclopenta[c]pyridin-3-yl]propanamide], 0.5 µg/mL (≈ 0.886 µM).

The same experiment, now with this note: strain Escherichia coli ATCC 25922; broth microdilution per CLSI M07-A10; 18-24 hours at 35±2° C.; lowest concentration for complete growth inhibition.
In the case of `C[C@@]1(C(=O)Nc2cc(F)c3c(c2)CC(CN2CCC4(CC2)CN(c2cnc5c(n2)NC(=O)CO5)C(=O)O4)C3)C[C@@H](O)CN1` (single isomer, unassigned) [Example 73], the “Escherichia coli growth inhibition MIC” value came out at 0.5 µg/mL.
